Numbers after ± are expanded uncertainties.
Tests used:
[1] = refractive index (Na D-line) (dimensionless); conditions: 298.15 K; 101.33 kPa; Liquid; Standard Abbe refractometry
[2] = 101.33 kPa, Liquid, Vibrating tube method

CCCCn1cc[n+](C)c1.F[P-](F)(F)(F)(F)F [1-butyl-3-methylimidazolium hexafluorophosphate]
refractive index [1]: 1.40926 ± 0.0006 | mass density ([2]; 293.15 K): 1371.4 ± 1.2 kg/m3 | mass density ([2]; 298.15 K): 1367.23 ± 1.1 kg/m3

From the NIST ThermoML archive (doi:10.1016/j.fluid.2013.11.034)
